Source: patent US20140343000A1 (priority 2011, published 2014)

These molecules were tested on recombinant NL4-3 virus (Renilla luciferase in nef, Gag P373S; NLRluc) in MT-2 cells (assay: whole plant or invertebrate). Details: Renilla, NL43, luciferase activity in cells infected for 4-5 days with NLRluc recombinants, serial dilutions of inhibitor; class symbols (key in Table 1); read-out: EC50.
Assay type: cell-based, HIV
Experimental: MT-2 cells and 293T cells were obtained from the NIH AIDS Research and Reference Reagent Program. MT-2 cells were propagated in RPMI 1640 media supplemented with 10% heat inactivated fetal bovine serum, […]. The 293T cells were propagated in DMEM media supplemented with 10% heat inactivated fetal bovine serum (FBS), 100 units/ml penicillin G and 100 μg/ml streptomycin. The proviral DNA clone of NL4-3 was obtained from the NIH AIDS Research and Reference Reagent Program. A recombinant NL4-3 virus, in which a section of the nef gene from NL4-3 was replaced with the Renilla luciferase gene, was used as a reference virus. In addition, residue Gag P373 was converted to P373S. Briefly, the recombinant virus was prepared by transfection of the altered proviral clone of NL4-3. Transfections were performed in 293T cells using LipofectAMINE PLUS from Invitrogen (Carlsbad, Calif.), according to manufacturer's instruction. The virus was titered in MT-2 cells using luciferase enzyme activity as a marker. Luciferase was quantitated using the Dual Luciferase kit from Promega (Madison, Wis.), with modifications to the manufacturer's protocol. The diluted Passive Lysis solution was pre-mixed with the re-suspended Luciferase Assay Reagent and the re-suspended Stop & Glo Substrate (2:1:1 ratio). Fifty (50) μL of the mixture was added to each aspirated well on assay plates and luciferase activity was measured immediately on a Wallac TriLux (Perkin-Elmer). Antiviral activities of inhibitors toward the recombinant virus were quantified by measuring luciferase activity in cells infected for 4-5 days with NLRluc recombinants in the presence serial dilutions of the inhibitor. Table 1 is the key for the data in Table 2.

Structure (SMILES)	EC50 [nM]
C=C(C)[C@@H]1CC[C@]2(NC(=O)N3CCCN(CCO)CC3)CC[C@]3(C)[C@H](CC[C@@H]4[C@@]5(C)CC=C(c6ccc(C(=O)O)cc6)C(C)(C)[C@@H]5CC[C@]43C)[C@@H]12 [Example 51, 4-((1R,3aS,5aR,5bR,7aR,11aS,11bR,13aR,13bR)-3a-(4-(2-hydroxyethyl)-1,4-diazepane-1-carboxamido)-5a,5b,8,8,11a-pentamethyl-1-(prop-1-en-2-yl)-2,3,3a,4,5,5a,5b,6,7,7a,8,11,11a,11b,12,13,13a,13b-octadecahydro-1H-cyclopenta[a]chrysen-9-yl)benzoic acid]	< 100
C=C(C)[C@@H]1CC[C@]2(NCCN3CCN(C(=O)C(=O)N4CCCCC4)CC3)CC[C@]3(C)[C@H](CC[C@@H]4[C@@]5(C)CC=C(c6ccc(C(=O)O)cc6)C(C)(C)[C@@H]5CC[C@]43C)[C@@H]12 [Example B29, 4-((1R,3aS,5aR,5bR,7aR,11aS,11bR,13aR,13bR)-5a,5b,8,8,11a-pentamethyl-3a-((2-(4-(2-oxo-2-(piperidin-1-yl)acetyl)piperazin-1-yl)ethyl)amino)-1-(prop-1-en-2-yl)-2,3,3a,4,5,5a,5b,6,7,7a,8,11,11a,11b,12,13,13a,13b-octadecahydro-1H-cyclopenta[a]chrysen-9-yl)benzoic acid]	< 100
C=C(C)[C@@H]1CC[C@]2(NC(N)=O)CC[C@]3(C)[C@H](CC[C@@H]4[C@@]5(C)CC=C(c6ccc(C(=O)O)cc6)C(C)(C)[C@@H]5CC[C@]43C)[C@@H]12 [Example 69-1, 4-((1R,3aS,5aR,5bR,7aR,11aS,11bR,13aR,13bR)-5a,5b,8,8,11a-pentamethyl-1-(prop-1-en-2-yl)-3a-ureido-2,3,3a,4,5,5a,5b,6,7,7a,8,11,11a,11b,12,13,13a,13b-octadecahydro-1H-cyclopenta[a]chrysen-9-yl)benzoic acid]	< 100
C=C(C)[C@@H]1CC[C@]2(NCc3ccnc(F)c3)CC[C@]3(C)[C@H](CC[C@@H]4[C@@]5(C)CC=C(c6ccc(C(=O)O)cc6)C(C)(C)[C@@H]5CC[C@]43C)[C@@H]12 [Example 132, 4-((1R,3aS,5aR,5bR,7aR,11aS,11bR,13aR,13bR)-3a-((2-fluoropyridin-4-yl)methylamino)-5a,5b,8,8,11a-pentamethyl-1-(prop-1-en-2-yl)-2,3,3a,4,5,5a,5b,6,7,7a,8,11,11a,11b,12,13,13a,13b-octadecahydro-1H-cyclopenta[a]chrysen-9-yl)benzoic acid]	< 100
C=C(C)[C@@H]1CC[C@]2(NC(=O)NCCCn3ccnc3)CC[C@]3(C)[C@H](CC[C@@H]4[C@@]5(C)CC=C(c6ccc(C(=O)O)cc6)C(C)(C)[C@@H]5CC[C@]43C)[C@@H]12 [Example 14, 4-((1R,3aS,5aR,5bR,7aR,11aS,11bR,13aR,13bR)-3a-(3-(3-(1H-imidazol-1-yl)propyl)ureido)-5a,5b,8,8,11a-pentamethyl-1-(prop-1-en-2-yl)-2,3,3a,4,5,5a,5b,6,7,7a,8,11,11a,11b,12,13,13a,13b-octadecahydro-1H-cyclopenta[a]chrysen-9-yl)benzoic acid]	< 100
C=C(C)[C@@H]1CC[C@]2(NC(=O)CN3CCCCS3(=O)=O)CC[C@]3(C)[C@H](CC[C@@H]4[C@@]5(C)CC=C(c6ccc(C(=O)O)cc6)C(C)(C)[C@@H]5CC[C@]43C)[C@@H]12 [Example 117, benzoic acid, 4-[(1R,3aS,5aR,5bR,7aR,11aS,11bR,13aR,13bR)-2,3,3a,4,5,5a,5b,6,7,7a,8,11,11a,11b,12,13,13a,13b-octadecahydro-5a,5b,8,8,11a-pentamethyl-1-(1-methylethenyl)-3a-[[(tetrahydro-1,1-dioxido-2H-1,2-thiazin-2-yl)acetyl]amino]-1H-cyclopenta[a]chrysen-9-yl]]	< 100
C=C(C)[C@@H]1CC[C@]2(NC(=O)C(=O)O)CC[C@]3(C)[C@H](CC[C@@H]4[C@@]5(C)CC=C(c6ccc(C(=O)O)cc6)C(C)(C)[C@@H]5CC[C@]43C)[C@@H]12 [Example 130-1, 4-((1R,3aS,5aR,5bR,7aR,11aS,11bR,13aR,13bR)-3a-(carboxyformamido)-5a,5b,8,8,11a-pentamethyl-1-(prop-1-en-2-yl)-2,3,3a,4,5,5a,5b,6,7,7a,8,11,11a,11b,12,13,13a,13b-octadecahydro-1H-cyclopenta[a]chrysen-9-yl)benzoic acid]	> 100
C=C(C)[C@@H]1CC[C@]2(NCCNc3cccnc3)CC[C@]3(C)[C@H](CC[C@@H]4[C@@]5(C)CC=C(c6ccc(C(=O)O)cc6)C(C)(C)[C@@H]5CC[C@]43C)[C@@H]12 [Example 189, 4-((1R,3aS,5aR,5bR,7aR,11aS,11bR,13aR,13bR)-5a,5b,8,8,11a-pentamethyl-1-(prop-1-en-2-yl)-3a-(2-(pyridin-3-ylamino)ethylamino)-2,3,3a,4,5,5a,5b,6,7,7a,8,11,11a,11b,12,13,13a,13b-octadecahydro-1H-cyclopenta[a]chrysen-9-yl)benzoic acid]	< 100
CC(C)[C@@H]1CC[C@]2(NCCN(C)C)CC[C@]3(C)[C@H](CC[C@@H]4[C@@]5(C)CC[C@H](c6ccc(C(=O)O)cc6)C(C)(C)[C@@H]5CC[C@]43C)[C@@H]12 [Example B5, 4-((1S,3aS,5aR,5bR,7aS,9S,11aS,11bR,13aR,13bR)-3a-((2-(dimethylamino)ethyl)amino)-1-isopropyl-5a,5b,8,8,11a-pentamethylicosahydro-1H-cyclopenta[a]chrysen-9-yl)benzoic acid]	< 100
C=C(C)[C@@H]1CC[C@]2(NC(=O)N[C@@H](C)C(=O)O)CC[C@]3(C)[C@H](CC[C@@H]4[C@@]5(C)CC=C(c6ccc(C(=O)O)cc6)C(C)(C)[C@@H]5CC[C@]43C)[C@@H]12 [Example 17, 4-((1R,3aS,5aR,5bR,7aR,11aS,11bR,13aR,13bR)-3a-(3-((S)-1-carboxyethyl)ureido)-5a,5b,8,8,11a-pentamethyl-1-(prop-1-en-2-yl)-2,3,3a,4,5,5a,5b,6,7,7a,8,11,11a,11b,12,13,13a,13b-octadecahydro-1H-cyclopenta[a]chrysen-9-yl)benzoic acid]	< 100
C=C(C)[C@@H]1CC[C@]2(NC(=O)N3CCN(C(=O)OC(C)(C)C)CC3CC(=O)O)CC[C@]3(C)[C@H](CC[C@@H]4[C@@]5(C)CC=C(c6ccc(C(=O)O)cc6)C(C)(C)[C@@H]5CC[C@]43C)[C@@H]12 (stereo partly drawn) [Example 59, 4-((1R,3aS,5aR,5bR,7aR,11aS,11bR,13aR,13bR)-3a-(4-(tert-butoxycarbonyl)-2-(carboxymethyl)piperazine-1-carboxamido)-5a,5b,8,8,11a-pentamethyl-1-(prop-1-en-2-yl)-2,3,3a,4,5,5a,5b,6,7,7a,8,11,11a,11b,12,13,13a,13b-octadecahydro-1H-cyclopenta[a]chrysen-9-yl)benzoic acid]	< 100
C=C(C)[C@@H]1CC[C@]2(NCCN3CCN(S(=O)(=O)c4ccc(C)cc4)CC3)CC[C@]3(C)[C@H](CC[C@@H]4[C@@]5(C)CC=C(c6ccc(C(=O)O)cc6)C(C)(C)[C@@H]5CC[C@]43C)[C@@H]12 [Example B48, 4-((1R,3aS,5aR,5bR,7aR,11aS,11bR,13aR,13bR)-5a,5b,8,8,11a-pentamethyl-1-(prop-1-en-2-yl)-3a-((2-(4-tosylpiperazin-1-yl)ethyl)amino)-2,3,3a,4,5,5a,5b,6,7,7a,8,11,11a,11b,12,13,13a,13b-octadecahydro-1H-cyclopenta[a]chrysen-9-yl)benzoic acid]	< 100

Same assay, conditions: Renilla, NL43, luciferase activity in cells infected for 4-5 days with NLRluc recombinants, serial dilutions of inhibitor; numeric values; read-out: EC50

Structure (SMILES)	EC50 [nM]
C=C(C)[C@@H]1CC[C@]2(NCC3CCCN(C(=O)OC(C)(C)C)C3)CC[C@]3(C)[C@H](CC[C@@H]4[C@@]5(C)CC=C(c6ccc(C(=O)O)cc6)C(C)(C)[C@@H]5CC[C@]43C)[C@@H]12 (stereo partly drawn) [Example 174, 4-((1R,3aS,5aR,5bR,7aR,11aS,11bR,13aR,13bR)-3a-((1-(tert-butoxycarbonyl)piperidin-3-yl)methylamino)-5a,5b,8,8,11a-pentamethyl-1-(prop-1-en-2-yl)-2,3,3a,4,5,5a,5b,6,7,7a,8,11,11a,11b,12,13,13a,13b-octadecahydro-1H-cyclopenta[a]chrysen-9-yl)benzoic acid]	300

Same assay, conditions: luciferase activity in cells infected for 4-5 days with NLRluc recombinants, serial dilutions of inhibitor; class symbols (key in Table 1); read-out: EC50

Structure (SMILES)	EC50 [nM]
C=C(C)[C@@H]1CC[C@]2(NC(=O)C(C(C)C)N3CCS(=O)(=O)CC3)CC[C@]3(C)[C@H](CC[C@@H]4[C@@]5(C)CC=C(c6ccc(C(=O)O)cc6)C(C)(C)[C@@H]5CC[C@]43C)[C@@H]12 (single isomer, unassigned) [Example 111]	< 100
